Laboratory results taken from publication PMC9747717, “A novel small molecule inhibitor of human Drp1” (Scientific Reports, 2022).

System: human iPSC-derived cardiomyocytes
Assay: Doxorubicin-induced cardiomyocyte injury, LDH release
Format: cell-based
Settings: DRP1i27 50 µM in combination with doxorubicin 5 µM, 2 days
Experimental: Cardiomyocytes were derived from human induced pluripotent stem cells (iPSCs, CERA007c6 cell line) as previously described with modifications[26],[27]. Briefly, human iPSCs were seeded onto Matrigel (Corning) coated plates at a density of 1.25 × 10^5 cells/cm^2 in TeSR-E8 medium supplemented with 10 μM Y−27632 (Abcam). After 48 h (cells ~ 90% confluent) (day 0), medium was replaced with RPMI-1640 basal medium (Thermo Fisher Scientific) containing B-27 without insulin supplement (Thermo Fisher Scientific), growth factor reduced Matrigel (1:60 dilution) and 10 μM CHIR99021 (Cayman Chemical). At day 1, medium was replaced with RPMI 1640 basal medium containing B-27 without insulin supplement. […]
Enriched cardiomyocytes were replated onto Matrigel-coated 48-well plates at a cell density of 5 × 10^4 cells/cm^2 for 2 days. […] LDH levels in the conditioned media were assessed using a colorimetric CyQUANT LDH Cytotoxicity Assay Kit (Thermo Fisher Scientific) according to manufacturer’s protocol. […] Following the incubation at room temperature for 30 min in the dark, 50 μL of Stop Solution was added and absorbance was measured at 490 nm and 680 nm on a microplate spectrophotometer (Bio-Rad). All readings were then corrected for the background signal from the culture media and expressed as fold change.

`Cc1nc[nH]c1CN1C[C@@H]2CC[C@H](C1)N(Cc1ccc(-c3cc[nH]n3)o1)C2` [DRP1i27] was tested, and the LDH release was 3.13 ± 0.16 fold change.
